The conditions of series [1]: from CC(C)[Si](Oc1cc(C[C@H](NC(=O)OC(C)(C)C)C(=O)N2CCC[C@@H](C(=O)O)N2)cc(-c2ccc3[nH]c(I)c(CC(C)(C)CO)c3c2)c1)(C(C)C)C(C)C; ester bond; 18-membered ring; EDCI/HOBt/DIPEA; DCM; 22.8 mM; 25.0 °C; 16.0 h.
For series [2], the system named is P70S6K (Thr389) phosphorylation (mTORC1) in MDA-MB-468 cells. The series is described as follows: Cell based AlphaLISA assay, mTOR kinase cellular assay: inhibition of p-P70S6K (T389) in MDA-MB-468 cells. The procedure, abridged:
(§1)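 MDA-MB-468 cells treated with compound at 0.017-1,000 nM for two to four hours at 37° C, then lysed. Phospho-AKT1/2/3 S473, 4EBP1 T37/46 and P70S6K T389 quantified by AlphaLISA SureFire Ultra in duplicate; IC50 from normalized regression with control-based normalization.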
(Alpha assays give light when donor and acceptor beads are brought close together.)

For series [3], the system named is 4EBP1 (Thr37/46) phosphorylation (mTORC1) in MDA-MB-468 cells. Briefly: Cell based AlphaLISA assay, mTOR kinase cellular assay: inhibition of p-4E-BP1 (T37/46) in MDA-MB-468 cells. The procedure, abridged: as §1
In series [4] the test system is AKT1/2/3 (Ser473) phosphorylation (mTORC2) in MDA-MB-468 cells. The series is described as follows: Cell based AlphaLISA assay, mTOR kinase cellular assay: inhibition of p-Akt (S473) in MDA-MB-468 cells. The procedure, abridged:
as §1

[5] abbreviates: Homo sapiens, read-out: pIC50 for Inhibition of mTORC1 and mTORC2 Substarte Phosphorylation p-P70S6K-(T389) (converted).
Setting [6] is: Homo sapiens, read-out: pIC50 for Inhibition of mTORC1 and mTORC2 Substarte Phosphorylation p-4E-BP1-(T37/46) (converted).
Where [7] appears, read: Homo sapiens, read-out: pIC50 for Inhibition of mTORC1 and mTORC2 Substarte Phosphorylation p-AKT1/2/3-(S473) (converted).

Where two headings read alike, the source gives them in different places.

Regarding `CC(C)[Si](Oc1cc2cc(c1)-c1ccc3[nH]c(I)c(c3c1)CC(C)(C)COC(=O)[C@@H]1CCCN(N1)C(=O)[C@@H](NC(=O)OC(C)(C)C)C2)(C(C)C)C(C)C`, the ring closure, isolated yield in series [1] worked out at 50%.

For `CO[C@H]1C[C@@H]2CC[C@@H](C)[C@@](O)(O2)C(=O)C(=O)N2CCCC[C@H]2C(=O)O[C@H]([C@H](C)C[C@@H]2CC[C@@H](OC(=O)N3CCc4nc(N5CCN(c6ncc(C(=O)NCCOCCOCCOCCOCCC(=O)N7CCc8cc(Cn9nc(-c%10ccc%11oc(N)nc%11c%10)c%10c(N)ncnc%109)ccc8C7)cn6)[C@@H](C(=O)O)C5)ncc4C3)[C@H](OC)C2)C[C@@H](OC)[C@H](C)/C=C(\C)[C@@H](O)[C@@H](OC)C(=O)[C@H](C)C[C@H](C)/C=C/C=C/C=C/1C` [Example 105], the figures for the IC50 in series [2] (setting [5]), in series [3] (setting [6]) and in series [4] (setting [7]) were not above 1 nM, 3.16 to 31.6 nM and more than 1000 nM, respectively.

Regarding `CO[C@H]1C[C@@H]2CC[C@@H](C)[C@@](O)(O2)C(=O)C(=O)N2CCCC[C@H]2C(=O)O[C@H]([C@H](C)C[C@@H]2CC[C@@H](OC(=O)NCc3cnc(N4CCN(c5ncc(C(=O)NCCOCCOCCOCCOCCC(=O)N6CCc7cc(Cn8nc(-c9cnc%10[nH]ccc%10c9)c9c(N)ncnc98)ccc7C6)c(N)n5)CC4)nc3)[C@H](OC)C2)CC(=O)[C@H](C)/C=C(\C)[C@@H](O)[C@@H](OC)C(=O)[C@H](C)C[C@H](C)/C=C/C=C/C=C/1C` [Example 108], the IC50 is 1 to 10 nM in series [2] (setting [5]), more than 1000 nM in series [3] (setting [6]) and more than 1000 nM in series [4] (setting [7]).

As to `CO[C@H]1C[C@@H]2CC[C@@H](C)[C@@](O)(O2)C(=O)C(=O)N2CCCC[C@H]2C(=O)O[C@H]([C@H](C)C[C@@H]2CC[C@@H](OC(=O)N3CCc4nc(N5CCN(c6ncc(C(=O)NCCOCCOCCOCCOCCC(=O)N7CCc8cc(Cn9nc(-c%10cnc%11[nH]ccc%11c%10)c%10c(N)ncnc%109)ccc8C7)c(N)n6)CC5)ncc4C3)[C@H](OC)C2)CC(=O)[C@H](C)/C=C(\C)[C@@H](O)[C@@H](OC)C(=O)[C@H](C)C[C@H](C)/C=C/C=C/C=C/1C` [Example 109], the IC50 in series [2] (setting [5]) was 10 to 1000 nM; in series [3] (setting [6]), more than 1000 nM; in series [4] (setting [7]) it was more than 1000 nM.

Turning to `CO[C@H]1C[C@@H]2CC[C@@H](C)[C@@](O)(O2)C(=O)C(=O)N2CCCC[C@H]2C(=O)O[C@H]([C@H](C)C[C@@H]2CC[C@@H](OC(=O)NCCOCCOCCOCCOCCOCCOCCC(=O)NC3CCN(CC(=O)N4CCc5cc(Cn6nc(-c7ccc8oc(N)nc8c7)c7c(N)ncnc76)ccc5C4)CC3)[C@H](OC)C2)C[C@@H](O)[C@H](C)/C=C(\C)[C@@H](O)[C@@H](OC)C(=O)[C@H](C)C[C@H](C)/C=C/C=C/C=C/1C` [Example 112], the IC50 is not above 1 nM in series [2] (setting [5]), more than 1000 nM in series [3] (setting [6]) and more than 1000 nM in series [4] (setting [7]).

As for `CO[C@H]1C[C@@H]2CC[C@@H](C)[C@@](O)(O2)C(=O)C(=O)N2CCCC[C@H]2C(=O)O[C@H]([C@H](C)C[C@@H]2CC[C@@H](OC(=O)NCCOCCOCCOCCOCCOCCOCCC(=O)N3CCC(N4CCC(C(=O)N5CCc6cc(Cn7nc(-c8ccc9oc(N)nc9c8)c8c(N)ncnc87)ccc6C5)CC4)CC3)[C@H](OC)C2)C[C@@H](O)[C@H](C)/C=C(\C)[C@@H](O)[C@@H](OC)C(=O)[C@H](C)C[C@H](C)/C=C/C=C/C=C/1C` [Example 113], the IC50 in series [2] (setting [5]) is not above 1 nM; in series [3] (setting [6]), not above 3.16 nM; in series [4] (setting [7]) it was 3.16 to 31.6 nM.

Take `CO[C@H]1C[C@@H]2CC[C@@H](C)[C@@](O)(O2)C(=O)C(=O)N2CCCC[C@H]2C(=O)O[C@H]([C@H](C)C[C@@H]2CC[C@@H](OC(=S)NCc3cnc(N4CCN(C(=O)CCOCCN5CCN(c6ncc(C(=O)N7CCc8cc(Cn9nc(-c%10ccc%11oc(N)nc%11c%10)c%10c(N)ncnc%109)ccc8C7)cn6)CC5)CC4)nc3)[C@H](OC)C2)C[C@@H](O)[C@H](C)/C=C(\C)[C@@H](O)[C@@H](OC)C(=O)[C@H](C)C[C@H](C)/C=C/C=C/C=C/1C` [Example 117]: the IC50 is not above 1 nM in series [2] (setting [5]), not above 3.16 nM in series [3] (setting [6]) and 3.16 to 31.6 nM in series [4] (setting [7]).

`CO[C@H]1C[C@@H]2CC[C@@H](C)[C@@](O)(O2)C(=O)C(=O)N2CCCC[C@H]2C(=O)O[C@H]([C@H](C)C[C@@H]2CC[C@@H](OC(=O)NCc3cnc(N4CCN(C(=O)CCOCCOCCN5CCN(c6ncc(C(=O)N7CCc8cc(Cn9nc(-c%10cnc%11[nH]ccc%11c%10)c%10c(N)ncnc%109)ccc8C7)cn6)CC5)CC4)nc3)[C@H](OC)C2)CC(=O)[C@H](C)/C=C(\C)[C@@H](O)[C@@H](OC)C(=O)[C@H](C)C[C@H](C)/C=C/C=C/C=C/1C` [Example 123]: the figures for the IC50 in series [2] (setting [5]), in series [3] (setting [6]) and in series [4] (setting [7]) were not above 1 nM, not above 3.16 nM and 31.6 to 1000 nM, respectively.

On to `CO[C@H]1C[C@@H]2CC[C@@H](C)[C@@](O)(O2)C(=O)C(=O)N2CCCC[C@H]2C(=O)O[C@H]([C@H](C)C[C@@H]2CC[C@@H](OC(=O)N3CCc4nc(N5CCN(C(=O)CCOCCN6CCN(c7ncc(C(=O)N8CCc9cc(Cn%10nc(-c%11cnc%12[nH]ccc%12c%11)c%11c(N)ncnc%11%10)ccc9C8)cn7)CC6)CC5)ncc4C3)[C@H](OC)C2)CC(=O)[C@H](C)/C=C(\C)[C@@H](O)[C@@H](OC)C(=O)[C@H](C)C[C@H](C)/C=C/C=C/C=C/1C` [Example 124], for which the IC50 in series [2] (setting [5]) was not above 1 nM; in series [3] (setting [6]) it was not above 3.16 nM; in series [4] (setting [7]) it was 3.16 to 31.6 nM.

In the case of `CO[C@H]1C[C@@H]2CC[C@@H](C)[C@@](O)(O2)C(=O)C(=O)N2CCCC[C@H]2C(=O)O[C@H]([C@H](C)C[C@@H]2CC[C@@H](OC(=O)NCc3cnc(N4CCN(CCOCCN5CCN(c6ncc(C(=O)N7CCc8cc(Cn9nc(-c%10cnc%11[nH]ccc%11c%10)c%10c(N)ncnc%109)ccc8C7)cn6)CC5)CC4)nc3)[C@H](OC)C2)CC(=O)[C@H](C)/C=C(\C)[C@@H](O)[C@@H](OC)C(=O)[C@H](C)C[C@H](C)/C=C/C=C/C=C/1C` [Example 127], the IC50 in series [2] (setting [5]) is not above 1 nM; in series [3] (setting [6]) it was 3.16 to 31.6 nM; in series [4] (setting [7]), more than 1000 nM.

As to `CO[C@H]1C[C@@H]2CC[C@@H](C)[C@@](O)(O2)C(=O)C(=O)N2CCCC[C@H]2C(=O)O[C@H]([C@H](C)C[C@@H]2CC[C@@H](OC(=O)N3CCc4nc(N5CCN(CCOCCN6CCN(c7ncc(C(=O)N8CCc9cc(Cn%10nc(-c%11cnc%12[nH]ccc%12c%11)c%11c(N)ncnc%11%10)ccc9C8)cn7)CC6)CC5)ncc4C3)[C@H](OC)C2)CC(=O)[C@H](C)/C=C(\C)[C@@H](O)[C@@H](OC)C(=O)[C@H](C)C[C@H](C)/C=C/C=C/C=C/1C` [Example 128], the IC50 is not above 1 nM in series [2] (setting [5]), 3.16 to 31.6 nM in series [3] (setting [6]) and 31.6 to 1000 nM in series [4] (setting [7]).

With `CC(C)n1nc(-c2ccc3oc(N)nc3c2)c2c(N)ncnc21` [MLN-128], the IC50 is 1.4 nM in series [2] (two to four hours at 37° C., AlphaLisa SureFire Ultra, read-out: IC50 for Inhibition of mTORC1 and mTORC2 Substarte Phosphorylation, p-P70S6K-(T389)); 16 nM in series [3] (two to four hours at 37° C., AlphaLisa SureFire Ultra, read-out: IC50 for Inhibition of mTORC1 and mTORC2 Substarte Phosphorylation, p-4E-BP1-(T37/46)); 3.7 nM in series [4] (two to four hours at 37° C., AlphaLisa SureFire Ultra, read-out: IC50 for Inhibition of mTORC1 and mTORC2 Substarte Phosphorylation, p-AKT1/2/3-(S473)).

Regarding `CO[C@H]1C[C@@H]2CC[C@@H](C)[C@@](O)(O2)C(=O)C(=O)N2CCCC[C@H]2C(=O)O[C@H]([C@H](C)C[C@@H]2CC[C@@H](O)[C@H](OC)C2)CC(=O)[C@H](C)/C=C(\C)[C@@H](O)[C@@H](OC)C(=O)[C@H](C)C[C@H](C)/C=C/C=C/C=C/1C` [Rapamycin, rapamycin, reference compound], the IC50 was 0.2 nM in series [2] (Homo sapiens, 4 h, two to four hours at 37° C., AlphaLisa SureFire Ultra, read-out: IC50 for Inhibition of mTORC1 and mTORC2 Substarte Phosphorylation, p-P70S6K-(T389)); more than 1000 nM in series [3] (Homo sapiens, 4 h, two to four hours at 37° C., AlphaLisa SureFire Ultra, read-out: IC50 for Inhibition of mTORC1 and mTORC2 Substarte Phosphorylation, p-4E-BP1-(T37/46)); more than 1000 nM in series [4] (Homo sapiens, 4 h, two to four hours at 37° C., AlphaLisa SureFire Ultra, read-out: IC50 for Inhibition of mTORC1 and mTORC2 Substarte Phosphorylation, p-AKT1/2/3-(S473)).

The values are drawn from US20230233569A1 (Revolution Medicines, Inc., priority 2020, published 2023).
